What was measured:
Colon 38 cells [1] = test: Anti-tumor activity testing 4: tumor-growth inhibition of subcutaneous Colon 38, intravenous injection; assay type: in vivo, Female BDF mice; settings: 21 days after transplantation
Text: Female BDF mice of 5-week age were used as test animals (eight head for each group).

L1210 cells [2] = test: Growth inhibition of L1210 cells ([3H]-thymidine uptake); assay type: cell-based, mouse; settings: 46 h incubation plus 2 h with [3H]-thymidine, 37° C.
Description: (§1) L1210 cells and cisplatin-resistant L1210 cells under subcultivation were incubated in RPMI1640 medium containing 10% fetal bovine serum at 37° C. for 46 hours in an atmosphere containing 5% carbon dioxide. [^3 H]-thymidine was added to the grown cells, and incubation was continued for an additional two hours. The growth inhibition rate of a drug was calculated from the amounts of [^3 H]-thymidine taken into the cells in the presence and absence of that drug, and the 50% growth inhibition concentration (IC50) was determined from the graph of inhibition rate plotted against drug concentration. The degree of drug resistance was calculated from the ratio of IC50 for cisplatin-resistant L1210 cells to that for L1210 cells.

[3] = system: cisplatin-resistant L1210 cells; test: Growth inhibition of cisplatin-resistant L1210 cells ([3H]-thymidine uptake); assay type: cell-based, mouse; settings: for IC50: 46 h incubation plus 2 h with [3H]-thymidine, 37° C.; for Degree of Resistance: ratio of IC50 for cisplatin-resistant L1210 cells to that for L1210 cells, 2880 min
Description: as §1

[4] = cited from earlier work
Colon 38 cells [5] = test: Anti-tumor activity testing 3: tumor-growth inhibition of subcutaneous Colon 38, intraperitoneal injection; assay type: in vivo, female BDF mice; settings: days 1, 8 and 15, 21 days after transplantation
Description: female BDF mice of 5-week age were used as test animals (five head for each group).
Colon 38 cells (40 mg) were subcutaneously transplanted to each of the test animals at the haunch, each of the Pt(II) complexes listed in Table 3 was then injected intraperitoneally 1 day, 8 days and 15 days after transplantation (a total of three times), and the tumor-growth inhibition rate was measured for each test group 21 days after transplantation.

L1210 cells [6] = test: Anti-tumor activity testing 2: life-prolonging rate in mice transplanted intraperitoneally with L1210 cells; assay type: in vivo, Female BDF1 mice; settings: days 1, 5 and 9
Description: Female BDF1 mice of 5-week age were used as test animals (five head for each group).
L1210 cells (1×10^5) were intraperitoneally transplanted to each of the test animals, each of the Pt(II) complexes listed in Table 2 was then injected intraperitoneally one day, five days and nine days after transplantation (a total of three times), and the life-prolonging rate was measured for each test group. Physiologically saline was used as the solvent of injections.

Sarcoma-180 cells = test: Anti-tumor activity testing 1: life-prolonging rate in mice transplanted intraperitoneally with Sarcoma-180 cells; assay type: in vivo, Female ICR/CRJ mice; settings: day after transplantation
Description: Female ICR/CRJ mice of 5-week age were used as test animals (five head for each group).
Sarcoma-180 cells (1×10^6) were intraperitoneally transplanted to each of the test animals, each of the Pt(II) complexes listed in Table 1 was then injected intraperitoneally on the next day, and the life-prolonging rate was measured for each test group. Physiologically saline was used as the solvent of injections.

[7] = Solubility in physiological saline; assay type: physicochemical

Row | Compound | Tumor-growth Inhibition Rate (Colon 38 cells [1]; 2 mg/kg × 6, i.v.) [%] | Tumor-growth Inhibition Rate (Colon 38 cells [1]; 4 mg/kg × 6, i.v.) [%] | Tumor-growth Inhibition Rate (Colon 38 cells [1]; 8 mg/kg × 6, i.v.) | Tumor-growth Inhibition Rate (Colon 38 cells [1]; 16 mg/kg × 6, i.v.) | IC50 (L1210 cells [2]) [µM] | IC50 [3] [µM] | Degree of Resistance [3] | Tumor-growth Inhibition Rate (Colon 38 cells [5]; 20.0 μmol/Kg × 3, i.p.) [%] | Tumor-growth Inhibition Rate (Colon 38 cells [5]; 30.0 μmol/Kg × 3, i.p.) [%] | Tumor-growth Inhibition Rate (Colon 38 cells [5]; 45.0 μmol/Kg × 3, i.p.) [%] | Life-prolonging Rate (L1210 cells [6]; 7.5 μmol/Kg × 3, i.p.) [%] | Life-prolonging Rate (L1210 cells [6]; 15.0 μmol/Kg × 3, i.p.) [%] | Life-prolonging Rate (L1210 cells [6]; 30.0 μmol/Kg × 3, i.p.) [%] | Life-prolonging Rate (Sarcoma-180 cells; 4.0 mg/Kg × 1, i.p.) [%] | Life-prolonging Rate (Sarcoma-180 cells; 8.0 mg/Kg × 1, i.p.) [%] | Life-prolonging Rate (Sarcoma-180 cells; 16.0 mg/Kg × 1, i.p.) [%] | also measured
1 | NC1CCCC(O)C1N.O=S1(=O)[O][Pt][O]1 (single isomer, unassigned; (-)) [Compound No. 9] | 40 | 88 | 88% | toxic |  |  |  |  |  |  |  |  |  |  |  |  | 
2 | NC1CCCC(O)C1N.O=S1(=O)[O][Pt][O]1 (single isomer, unassigned; (+)) [Compound No. 8, (+)-Cis-sulfato-(1/2,3)-2,3-diaminocyclohexanol-platinum(II)] | 34 | 35 | 61% | 91% |  |  |  |  |  |  |  |  |  |  |  |  | 
3 | N.N.[Cl][Pt][Cl] [Cisplatin, cis-dichlorodiamineplatinum(II), reference compound] | 58 | 84 | toxic |  | 1 | 10.5 | 10.5 |  |  |  |  |  |  |  |  |  | Tumor-growth Inhibition Rate (Colon 38 cells [1]; 1 mg/kg × 6, i.v.): 19%; anti-tumor activity (in words) ([4]; Nature, 222, 385 (1969)): high anti-tumor activity; side effects (in words) ([4]; clinical use): severe side effects, such as toxicity to the kidney, nausea, emesis and bradyacusia
4 | NC1CCCC(N)C1.O=C1[O][Pt][O]C1=O (stereo not drawn) [Compound No. 4, Cis-oxalato-1,3-diaminocyclohexaneplatinum(II)] |  |  |  |  | 2.4 | 5 | 2.1 | 54 | 77 | 88 | 127 | 222 | 245 | 248 | 258 | 364 | 
5 | O=C1[O][Pt]2([NH]C3CCCC(O)C3[NH]2)[O]C1=O (stereo not drawn) [Compound No. 1, Cis-oxalato-(1/2,3)-2,3-diamino-1-cyclohexanolplatinum(II)] |  |  |  |  | 3.5 | 6.6 | 1.9 | 24 | 16 | 45 | 115 | 115 | 132 | 189 | 218 | 266 | 
6 | O=S1(=O)[O][Pt]2([NH]C3CCCC(C3)[NH]2)[O]1 [Compound No. 5, Cis-sulfato-1,3-diaminocyclohexaneplatinum(II)] |  |  |  |  | 3.1 | 7.9 | 2.5 | 36 | 56 | 56 | 121 | 189 | 155 | 202 | 187 | 236 | 
7 | O=S1(=O)[O][Pt]2([NH]C3CC([NH]2)C(O)C(O)C3O)[O]1 (stereo not drawn) [Compound No. 7, Cis-sulfato-2-deoxystreptamineplatinum(II)] |  |  |  |  |  |  |  |  |  |  |  | 102 | 109 |  | 126 | 120 | Life-prolonging Rate (L1210 cells [6]; 60.0 μmol/Kg × 3, i.p.): 119%; Life-prolonging Rate (Sarcoma-180 cells; 32.0 mg/Kg × 1, i.p.): 241%
8 | O=C1C[O][Pt]2([NH]C3CCCC(O)C3[NH]2)[O]1 (stereo not drawn) [Compound No. 3, Cis-glycolato-(1/2,3)-2,3-diamino-1-cyclohexanolplatinum(II)] |  |  |  |  | 1.3 | 2.5 | 1.9 | 70 | 72 | 96 | 116 | 122 | 147 | 212 | 182 | 252 | 
9 | NC1CCCC(O)C1N.O=S(=O)([O-])[O-].[Pt+2] (stereo not drawn) [Compound No. 2, Cis-sulfato-(1/2,3)-2,3-diamino-1-cyclohexanolplatinum(II)] | 22 | 41 | 90% | toxic | 1.7 | 3.2 | 1.9 | 47 | 78 | 97 | 136 | 134 | 151 | 295 | 532 | 534 | Solubility [7]: > 20.0 mg/mL
10 | NC1CCCC(N)C1.O=C1[O][Pt][O]C(=O)C12CCC2 [Compound No. 6, Cis-cyclobutane-1,1-dicarboxylato-1,3-diaminocyclohexaneplatinum(II)] |  |  |  |  |  |  |  |  |  |  |  |  | 98 |  |  | 126 | Life-prolonging Rate (L1210 cells [6]; 60.0 μmol/Kg × 3, i.p.): 104%; Life-prolonging Rate (Sarcoma-180 cells; 32.0 mg/Kg × 1, i.p.): 106%

Reference: patent US5041579A, “Platinum complexes and uses therewith” (Ajinomoto Co., Inc., priority 1987, dated 1991)
